# According to patent US8715668B2, “Antibody selective for a tumor necrosis factor-related apoptosis-inducing ligand receptor DR5 and uses thereof” (The UAB Research Foundation, priority 2000, dated 2014):
# How the values were obtained:
# DR4 = target: T1, DR4 (Homo sapiens, UniProt O00220); experiment: ELISA binding to immobilized DR4-Ig fusion protein
# T1 construct: The soluble recombinant human DR4, DcR1, DcR2, TNFR1, R4, and Fas molecules used are human IgG1 fusion proteins; human IgG1 Fc
# Protocol: ELISA plates are coated with 2 μg/ml of DR4-Ig or DR5-Ig fusion protein overnight. […] The reactions are developed by TMB substrate buffer and measured by the Benchmark Microplate Reader (BioRad). The Kd values are estimated by the one-site binding model of non-linear regression using GraphPad Prism® software (GraphPad Software, San Diego, Calif.).
# RA synovial cells = experiment: Cell viability of primary cultured RA synovial cells; type: cell-based, human; details: high concentrations (>50 ng/ml)
# Description: (§1) Cell viability is the percentage of the cpm of treated cells versus the cpm of untreated cells.
# (§2) The expression of DR5 on a panel of eight primary cultured synovial cells from patients with RA is compared with that on eight primary cultured synovial cells from patients with osteoarthritis (hereinafter referred to as “OA”). The eight human primary RA synovial cell cultures RA-1014, RA-1016, RA-1021, RA-512, RA-707, RA-811, RA-716, and RA-929 are kindly provided by Dr. M. Ohtsuki (Sankyo Co. Ltd., Tokyo, Japan) and cultured in DMEM supplemented with 10% FCS, penicillin, streptomycin, and glutamine. The […] OA synovial cell primary cell cultures are isolated from the synovial tissues of OA patients by a standard collagenase method and cultured under the same conditions. The passage number of all primary cells is under 10. The expression of DR5 is determined by FACs analysis as described in Example 5.
# Jurkat cells [1] = experiment: Jurkat cell viability (ATPLite, MTT, PI exclusion); type: cell-based, human; details: overnight, TRAIL plus crosslinker
# Protocol: (§3) Cell viability is determined using (1) the ATPLite® kit according to the manufacturer's instructions (Packard Instruments, Meriden, Conn.); (2) the MTT Cell proliferation/viability kit (Sigma); or (3) PI staining of dead cells and analyzed by flow cytometry. At end of culture, cells are stained with 10 μg/ml PI and PI negative cells are gated as viable cells. For analysis of condensed nuclei of hepatocytes, cells are stained with 10 ng/ml Hoechst 33352 (Molecular Probes) and analyzed by flow cytometry.
# normal human hepatocytes = experiment: Viability of normal human hepatocytes (ATPLite); type: cell-based
# Description: For 24-hour cell viability assays, fresh normal human hepatocytes in 96-well plates were purchased from In Vitro Technology (Baltimore, Md.). […] For 6-hour viability assays, normal hepatocytes or hepatocellular cancer cells are isolated from fresh surgical specimens collected from UAB Tissue Procurement Center. All reagents for isolation of human hepatocytes including hepatocytes perfusion buffer, digest medium, washing medium, and attachment medium were purchased from Gibco. The tissue slides are digested in the Hepatocyte Digest Medium at 37° C. with shaking (50 rpm) for one hour. The isolated hepatocytes are harvested by low speed centrifugation (50 g, 3 min), and washed with the Hepatocyte Washing Medium six times. Single cell suspension of hepatocytes are cultured in the Attachment Medium containing 10% FCS in 96-well Matrigel plates (BD) for six hours. Non-attached hepatocytes are removed by twice washing with pre-warmed attachment medium.
# EB-3 = experiment: Apoptosis by ATPLite after overnight incubation; type: cell-based, human
# Protocol: as §3
# Daudi = experiment: Apoptosis by ATPLite after overnight incubation; type: cell-based, human
# Protocol: as §3
# CEM-6 = experiment: Apoptosis by ATPLite after overnight incubation; type: cell-based, human
# Protocol: as §3
# U937 = experiment: Apoptosis by ATPLite after overnight incubation; type: cell-based, human
# Protocol: as §3
# Molt-4 = experiment: Apoptosis by ATPLite after overnight incubation; type: cell-based, human
# Protocol: as §3
# U251-MG = experiment: Apoptosis by ATPLite after overnight incubation; type: cell-based, human
# Protocol: as §3
# H-9 = experiment: Apoptosis by ATPLite after overnight incubation; type: cell-based, human
# Protocol: as §3
# Hs683 = experiment: Apoptosis by ATPLite after overnight incubation; type: cell-based, human
# Protocol: as §3
# U87 = experiment: Apoptosis by ATPLite after overnight incubation; type: cell-based, human
# Protocol: as §3
# SKW6.4 = experiment: Apoptosis by ATPLite after overnight incubation; type: cell-based, human
# Protocol: as §3
# primary B cells = experiment: Apoptosis by ATPLite after overnight incubation; type: cell-based, human
# Protocol: as §3
# Raji = experiment: Apoptosis by ATPLite after overnight incubation; type: cell-based, human
# Protocol: as §3
# MMP-1, 3, and 13 = experiment: ELISA of MMP production by RA synovial cells; type: cell-based, human; details: overnight; 50 ng/ml interleukin 1b, 10 ng/ml TNF-α, 50 ng/ml TRAIL, 50 ng/ml TRA-8
# Protocol: Thus, it is possible that TRAIL, like TNF-α, may serve as a pro-inflammatory cytokine. […] The levels of the MMP-1 and MMP-3 in the culture supernatants are determined by the ELISA kits.
# liver = experiment: Induction of hepatitis in vivo by tetracycline-inducible adenoviral vectors; set-up: species or system B6 mice; details: Ad/TRAIL inoculated mice; 10 μg soluble human TRAIL
# Protocol: 8-10 week-old female B6 mice are intravenously injected with 10^9 pfu of Ad/hTRAIL with the equal number of Ad/Tet-on. Mice are fed with different concentrations of tetracycline in their drinking water immediately after inoculation of adenoviral vectors. Liver injury is determined by serum levels of AST using an AST diagnostic kit (Sigma). Expression of TRAIL is determined by Northern blot analysis.
# OA synovial cells = experiment: Cell viability of primary cultured OA synovial cells; type: cell-based, human; details: OA72M
# Description: as §1, §2
# CLL B cells = experiment: Cytotoxicity to CLL B cells in vitro; type: cell-based, human; details: compared to normal primary B cells
# breast cancer lines = experiment: Combined cytotoxicity of TRA-8 with adriamycin; type: cell-based, human
# Jurkat cells [2] = experiment: Apoptosis-inducing activity of humanized antibody on Jurkat cells (XTT); type: cell-based, human; details: 12 hours; serial 2-fold dilution from 100 ng/ml
# Protocol: Jurkat cells cultured in RPMI1640 medium with 10% FCS (Gibco BRL) at 37° C. for 3 days in the presence of 5% CO2 are dispensed into each well of a 96-well microplate (Sumitomo Bakelite) at 50 μl per well. […] Each of the solutions of the expression products thus adjusted to 100 ng/ml is used to produce serial dilutions by repeating serial 2-fold dilution with RPMI1640 containing 10% FCS. […] After reacting at 37° C. for 12 hours, 50 μl of 25 μM PMS (phenazine methosulfate; Sigma Chemical Co.) containing 1 mg/ml XTT (2,3-bis [2-methoxy-4-nitro-5-sulfophenyl]-2H-tetrazolium-5-carboxyaniride inner salt; Sigma Chemical Co.) is added (final concentrations of 250 μg/ml for XTT and 5 μM for PMS). After incubating for 3 hours, the absorbance at 450 nm of each well is measured to calculate the cell viability by using the reduction ability of mitochondria as the index.
# The viability of the cells in each well is calculated according to the following formula: Viability(%)=100×(a−b)/(c−b) wherein “a” is the measurement of a test well, “b” is the measurement of a well with no cells, and “c” is the measurement of a well with no antibody added.
# Jurkat cells cultured in RPMI1640 medium with 10% FCS (Gibco BRL) at 37° C. for 3 days in the presence of 5% CO2 are dispensed into each well of a 96-well microplate (Sumitomo Bakelite) at 50 μl per well. […]
# T1 sequence (O00220 24-239 limits assumed): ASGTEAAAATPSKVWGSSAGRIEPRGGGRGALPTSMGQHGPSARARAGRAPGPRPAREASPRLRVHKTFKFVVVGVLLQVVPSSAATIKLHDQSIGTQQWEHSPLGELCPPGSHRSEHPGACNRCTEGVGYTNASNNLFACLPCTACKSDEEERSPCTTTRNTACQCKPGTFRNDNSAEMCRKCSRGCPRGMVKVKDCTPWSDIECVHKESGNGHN
molecule,measurement,setting,value
"TRAIL: Soluble recombinant human TRAIL (aa residues 95 to 281) fused to a FLAG-tag, Alexis; used with anti-FLAG crosslinker",binding activity to DR4,DR4,bound to DR4
same,cell death,RA synovial cells; RA929,~100%
same,cell death,RA synovial cells; RA-716,~100%
same,cell death,RA synovial cells; RA-811,~100%
same,cell death,RA synovial cells; RA-1014,~100%
same,susceptibility to apoptosis,Jurkat cells [1],highly susceptible
same,hepatocytes killed,"normal human hepatocytes; 6-hour culture period, 500 ng/ml TRAIL",Over 20%
same,hepatocytes killed,"normal human hepatocytes; end of 24-hour culture, 1 μg/ml, TRAIL plus crosslinker",more than 80%
same,susceptibility to apoptosis,EB-3,very susceptible
same,susceptibility to apoptosis,Daudi,much less susceptible
same,susceptibility to apoptosis,CEM-6,highly susceptible
same,susceptibility to apoptosis,U937,partially susceptible
same,susceptibility to apoptosis,Molt-4,partially susceptible
same,susceptibility to apoptosis,U251-MG,resistant
same,susceptibility to apoptosis,H-9,resistant
same,susceptibility to apoptosis,Hs683,resistant
same,susceptibility to apoptosis,U87,exhibited sensitivity
same,susceptibility to apoptosis,SKW6.4,very susceptible
same,susceptibility to apoptosis,primary B cells,did not undergo apoptosis
same,susceptibility to apoptosis,Raji,very susceptible
same,production/release of MMPs,"MMP-1, 3, and 13",not associated with increased release
same,liver injury after intravenous injection,liver,did not exhibit increased liver injury
same,susceptibility to apoptosis,OA synovial cells,completely resistant
"Cn1cc(C2=C(c3cn(CCCN)c4ccccc34)C(=O)NC2=O)c2ccccc21 [BisVIII, Bisindolylmaleimide VIII]",susceptibility of CLL B cells,CLL B cells,sensitive
COc1cccc2c1C(=O)c1c(O)c3c(c(O)c1C2=O)C[C@@](O)(C(=O)CO)C[C@@H]3O[C@H]1C[C@H](N)[C@H](O)[C@H](C)O1 [adriamycin],effect on TRA-8-induced apoptosis,breast cancer lines; high doses of adriamycin,additive effect
same,effect on TRA-8-induced apoptosis,"breast cancer lines; low doses of adriamycin, some TRA-8 resistant lines",synergistically enhance
TNF-α,production/release of MMPs,"MMP-1, 3, and 13",increased
IL-1b: proinflammatory cytokine,production/release of MMPs,"MMP-1, 3, and 13",increased
"humanized TRA-8: humanized TRA-8, cotransfection of pHB14-1 and pSR/M2-1: H2 type heavy chain (SEQ ID No. 31), LM2 light chain (SEQ ID No. 46) (antibody) VH: EVMLVESGGGLVQPGGSLRLSCAASGFTFSSYVMSWVRQAPGKGLEWVATISSGGSYTYYPDSVKGRFTISRDNAKNTLYLQMNSLRAEDTAVYYCARRGDSMITTDYWGQGTLVTVSS light: DIVMTQSPSSLSASVGDRVTITCKASQDVGTAVAWYQQKPGKAPKLLIYWASTRHTGVPSRFSGSGSGTDFTLTISSLQPEDFATYYCQQYSSYRTFGQGTKVEIKRTVAAPSVFIFPPSDEQLKSGTASVVCLLNNFYPREAKVQWKVDNALQSGNSQESVTEQDSKDSTYSLSSTLTLSKADYEKHKVYACEVTHQGLSSPVTKSFNRGEC",induction of apoptosis,Jurkat cells [2],induce apoptosis
